± gives the expanded uncertainty stated by the source.
Experiments:
[1] = Molar enthalpy of transition or fusion; conditions: Crystal; DSC

- Molar enthalpy of transition or fusion [1]: 27.9 ± 0.6 kJ/mol
- Normal melting temperature (Crystal, DTA): 110.1 ± 0.4 °C
- Glass transition temperature (Glass, Adiabatic calorimetry): 41.2 ± 0.1 °C
SMILES: COc1ccc(C2(c3ccc(OC)c(C)c3)OC(=O)c3ccccc32)cc1C [3,3-bis(4-methoxy-3-methylphenyl)-1(3H)-isobenzofuranone]

— the NIST ThermoML archive (doi:10.1016/j.tca.2016.05.007)
